Measured values from US5124150A.

Legend:
uninfected CEM cells = details: human, 7200 min
Protocol: The cells and the virus were grown in LAV/CEM medium. The medium consists of RPMI 1640, supplemented with 1% L-glutamine, 100 U/ml of Penicillin, 100 μg/ml Streptomycin, 2 μg/ml Polybrene and 10% heat-inactivated fetal bovine serum (HyClone Labs).
The toxicities of the drugs were tested against uninfected CEM cells. The CEM cells were plated as described above, and culture for five days in the presence or absence of drugs. On day five 1 μCi/well of ^3 H-thymidine was added, and cells were harvested 3 hours later. The results are expressed as toxic dose 50 (TD50) and represent the amount of drug necessary to reduce the cell proliferation by 50% as measured through thymidine incorporation.

HIV antigen = assay: expression of HIV antigen in infected MT-4 cells by immunofluorescence; type: cell-based; details: HIV-infected MT-4 cells; concentration higher than 50 μg/ml
Protocol: Expression of HIV antigen was examined by immunofluorescence. When MT-4 cells were infected with HIV, viral antigen positive cells increased with incubation time and all the cells became positive on day 6 after infection.

[1] = test system: reverse transcriptase (RTase) derived from avian myeloblastosis virus (AMV); type: biochemical; details: concentrations higher than 3 μg/ml; 1 unit of AMV RTase
CEM-SS cells = assay: cellular toxicity in CEM-SS cells, XTT assay; type: cell-based; details: human, 144 h
Description: CEM-SS cells were obtained from Owen Weislow at the National Cancer Institute.

solubility in solvents = type: physicochemical
[2] = test system: human immunodeficiency virus (HIV) LAV/BRU; details: CEM-F cells; reduces viral replication by 50%
Protocol: AZT was included as a reference compound. The methodology used in this assay is described below:
The cells and the virus were grown in LAV/CEM medium. The medium consists of RPMI 1640, supplemented with 1% L-glutamine, 100 U/ml of Penicillin, 100 μg/ml Streptomycin, 2 μg/ml Polybrene and 10% heat-inactivated fetal bovine serum (HyClone Labs). […] The LAV/BRU of human immunodeficiency virus (HIV) was obtained from Dr. L. Montagnier, Institute Pasteur, Paris, France. The virus was adapted to CEM cells, and infectious virus stocks were stored as cell-free supernatant fluids in 1 ml aliquots in liquid nitrogen. The titer of the stock was determined by an end point titration method using CEM cells in 96-well microtiter plates. The titration was done with ten replicates for each point, and the 50% tissue culture infective dose (TCID50) was calculated using the method of Reed and Muench (Amer. J. Hygiene, 27/3 (1938) 493-497).
25 The CEM cells (1.5×10^5 cells/ml) were placed in 96-well plates and incubated with virus for 45 minutes. After 45 minutes each compound was added in quadruplicate. […] The OD readings (absorbance at 450/630 nm) fall into three categories: Experimentals=values from wells containing cells, viral inoculum and drug; Controls=values from wells with cells and virus (100%); and Background=values from wells with viral inoculum alone. […]

SMILES | TD50, thymidine incorporation (uninfected CEM cells) [µg] | HIV antigen positive cells (HIV antigen) | inhibition of AMV RTase activity [1] | TD50, XTT assay (CEM-SS cells) [µg/mL] | solubility in dimethylformamide and dimethyl sulfoxide (solubility in solvents) | ED50, p24gag antigen capture assay [2] [µg]
Cc1cn([C@H]2C[C@H](N=[N+]=[N-])[C@@H](CO)O2)c(=O)[nH]c1=O [AZT, reference compound] | 4.2 | – | – | – | – | –
C/C1=C\C=C\C2(C)C=C(CO[C@H]3O[C@H](CO)[C@H](O)[C@H](O)[C@H]3O)C(C)CC23OC(O)C(C3=O)C(O)/C=C/C2(C)C=C(C=O)C(C)CC23OC(O)C(C3=O)C(O)/C(C)=C/C=C/C2C=C(CO[C@H]3O[C@H](CO)[C@H](O)[C@H](O)[C@H]3O)C(C)CC23OC(O)C(C3=O)C(O)/C=C/C2(C)C=C(C=O)C(C)CC23OC(O)C(C3=O)C1O (some centres unmarked) | > 100 | less than 1% | more than 95% | 300 | soluble | 3.2
C/C1=C\C=C\C2C=C(CO[C@H]3O[C@H](CO)[C@H](O)[C@H](O)[C@H]3O)C(C)CC23OC(O)C(C3=O)C(O)/C=C/C2(C)C=C(CO)C(C)CC23OC(O)C(C3=O)C(O)/C(C)=C/C=C/C2(C)C=C(CO[C@H]3O[C@H](CO)[C@H](O)[C@H](O)[C@H]3O)C(C)CC23OC(O)C(C3=O)C(O)/C=C/C2(C)C=C(C=O)C(C)CC23OC(O)C(C3=O)C1O (some centres unmarked) | > 100 | – | – | 200 | soluble | 2.5
